This assay relates to GFP-tagged proteins in HAP1 cells. Briefly: GFP intron-tagged cell pool / arrayed clones, time-lapse imaging of protein levels and localization. Format: cell-based. Here is the method:
For the generation of lentiviral particles, HEK293T cells were transiently transfected with the intron-targeting library and packaging plasmids psPAX2, pMD2.G using PEI transfection. After 12 h the media was replaced with IMDM supplemented with 10% FBS and P/S. Viral supernatant was collected 48 h after transfection and stored at −80° C. HAP1 cells were transduced with virus and selected with puromycin for three days. Multiplicity of infection (MOI) was 0.2 and transduction was done at a coverage of 500×. After puromycin selection, cells were grown for one day in media without puromycin before being seeded for transfection (8 million cells per 15 cm dish, 48 million cells in total). One day after seeding, each dish was co-transfected with 20 μg pX330 expressing Cas9-BSD and the generic sgRNA and 10 μg EGFP donor plasmid with 90 μl Turbofection in 2.5 ml OptiMEM as described by the manufacturer. Transfection efficiency was approximately 10% as determined by a transfection done in parallel with pX330 Cas9-mCherry and the EGFP donor plasmid using the same ratio. The next day, cells were subjected to a transient selection using Blasticidin (10 μg/ml) for 24 h. After selection, cells were maintained in full media without Blasticidin and sorted five days after transfection by flow cytometry using a Sony Cell Sorter SH800ZD. 0.03% cells were GFP-positive and in total 24,300 of those GFP-positive cells were sorted and the cell population was expanded for 7 days before DNA was isolated to determine sgRNA abundance in the cell population.
To obtain clonal cell lines, cells were seeded at a concentration of 0.7 cells per well in 96-well cell culture plates. After 9 days of clonal expansion, 768 colonies were harvested using trypsin and cell suspensions were transferred in equal amounts to eight 96-well imaging plates (Perkin Elmer CellCarrier Ultra) and eight corresponding 96-well cell culture plates. After 24 h, cells on the imaging plates were imaged on a Perkin Elmer Opera Phenix High Content Screening System (5 fields of view per well, 63× water-immersion objective, confocal mode, excitation: 488 nm, […], 700 ms). Images were processed using Cell Profiler. To identify the intron-targeting sgRNAs expressed in imaged cells, multiplexed amplicon sequencing of the sgRNA regions was performed in the corresponding clones on the eight 96-well cell culture plates. Cells were lysed and cell lysates were used for PCR to amplify the sgRNA region in each clone using barcoded primers flanking the sgRNA region (36 different 5-mers added to the 5′end of the forward primer and 24 different 5-mers added to the 5′end of the reverse primer, 768 of all possible 864 combinations were used). PCR reactions were pooled and column purified before being send for sequencing by a commercial sequencing service. NGS reads were demultiplexed using Cutadapt (see Martin, M. EMBnet. journal, [S.I.], v. 17, n. 1, p. pp. 10-12, may 2011) and sgRNA read counts for each individual well were obtained using MAGeCK (see, Li (2014) Genome Biol 15, 554 (2014). For further analysis clones were excluded, for which either no cells in any of the 5 fields of view that were imaged were observed, no sequencing reads for the corresponding well were observed or for which polyclonal cell populations as determined by imaging or detection of multiple sgRNAs per well were observed. Using that strategy, images of 335 clones were obtained for which the expressed intron-targeting sgRNA corresponding to the tagged protein could be identified.
Live cell imaging was performed on a PerkinElmer Opera Phenix microscope with excitation laser 488 nm, and emission filter 500-550 nm, 700 ms.
Identification of the expressed sgRNAs by in situ sequencing was performed by following and modifying published protocols, see, e.g., Feldman (2019) loc. cit; Ke (2013) Nat Methods 10, 857-60; and Larsson (2010) Nat Methods 7, 395-7. […]

Where [1] appears, read: clonal cell line, 1 μM (FIG. 10).

Each structure is given as a SMILES string.

As to `CN(Cc1cnc2nc(N)nc(N)c2n1)c1ccc(C(=O)N[C@@H](CCC(=O)O)C(=O)O)cc1` [MTX, methotrexate], under “1 μM (FIG. 10)”, the PADI1 protein level entry is “decreases”, the RUVBL1 protein level result is recorded as “decreases”, the “nuclear foci of GFP-tagged DNMT1” value is recorded as “disappearance of nuclear DNMT1 foci” and the “nuclear signal of GFP-tagged NUDT21” value is “gain of nuclear signal”. Also, where the note is “1 μM (FIG. 10)”, the “nuclear signal of GFP-tagged TPI1” value is “gain of nuclear signal” and the “nuclear signal of GFP-tagged transcription factor DR1” value is “gain of nuclear signal”. Also, the “localization of GFP-tagged ACLY” value (24 h treatment, 1 μM (FIG. 10)) is “increased nuclear localization”. For the same molecule, under setting [1], the “localization of GFP-tagged RPA1” value was “formation of nuclear foci” and the “localization of GFP-tagged RPA2” value is listed as “formation of nuclear foci”.
Regarding `Cc1sc2c(c1C)C(c1ccc(Cl)cc1)=N[C@@H](CC(=O)NCCCCCCCCNC(=O)COc1cccc3c1C(=O)N(C1CCC(=O)NC1=O)C3=O)c1nnc(C)n1-2` (some centres unmarked) [dBET6], where the note is “cell pool, FIG. 6e”, the “localization of GFP-tagged AKAP8” value is “gain of nuclear foci”, the “localization of GFP-tagged FUBP3” value was “loss of subnuclear localization patterns”, the “localization of GFP-tagged MEAF1” value is “loss of subnuclear localization patterns” and the “localization of GFP-tagged SFPQ” value is given as “gain of nuclear foci”. Moreover, the “nuclear intensity of GFP-tagged UNG” value (cell pool, FIG. 6e) was “loss of nuclear intensity”.

The record behind these values is patent publication US20240141445A1, “NOVEL METHOD FOR POOLED INTRON TAGGING FOR REAL TIME DRUG SCREENING” (CeMM - Forschungszentrum für Molekulare Medizin GmbH, priority 2019, published 2024).
